From patent US11873486B2, “Modulating dsRNA editing, sensing, and metabolism to increase tumor immunity and improve the efficacy of cancer immunotherapy and/or modulators of intratumoral interferon” (Dana-Farber Cancer Institute, Inc., priority 2017, dated 2024)
Entries after “also recorded” stand apart in the source; their conditions may differ.

What was measured:
[1] = test system: ADAR1 knockout A549 cells; test: Viability of ADAR1 knockout A549 cells with interferon or drug treatment; type: cell-based, human
Description: For drug treatment assays, cells were plated at a density of 3000 cells per well in a 96-well assay plate. The following day, cells were treated with ruxolitinib (INCB018424) from Selleck Chemicals; MRT67307 hydrocloride (SML0702) from Sigma-Aldrich; human interferon-alphal (#8927) from Cell Signaling; recombinant human IFN-beta 1a (mammalian) protein (114151) and recombinant human IFN-gamma protein (285-IF-100) from R&D Systems. For preincubation drug treatment experiments, cells were plated in the presence of ruxolitinib and were treated with interferon-0 and ruxolitinib the following day. Control wells were treated with dimethylsulfoxide (DMSO). Cell viability was assayed 3 or 6 days after drug treatment with CellTiter-Glo® Luminescent Cell Viability Assay kit (Promega). Viability was normalized to DMSO controls.
for interferon treatment assays, cells were plated at a low density of 3000 cells per well in a 96-well assay plate. The following day, cells were treated with human interferon-alpha 1 (Cell Signaling, #8927) or recombinant human IFN-beta 1a (mammalian) protein (PBL Assay Science, 114151). Control wells were treated with water. Cell viability was assayed 3 or 6 days after drug treatment with CellTiter-Glo© Luminescent Cell Viability Assay kit (Promega). Viability was normalized to controls. Apoptosis was assayed 3 days after interferon treatment with Caspase-Glo®3/7 Assay kit (Promega). Dose curves were obtained using least-squares nonlinear regression on a standard four-parameter logistic model using GraphPad Prism.

[2] = test system: A549 ADAR1 knockout cells; test: Immunoblot of interferon regulated genes in ADAR1 knockout cell lines; type: cell-based, human; settings: 500 nM
Description: (§1) Cells were lysed in RIPA lysis buffer (Thermo Scientific) supplemented with 1× protease and phosphatase inhibitor cocktails (Roche). Protein extracts were analyzed by standard immunoblotting with the following antibodies: ADAR1 (D7E2M), MDA5 (D74E4), RIG-I (D14G6), ISG15 (22D2), USP18 (D4E7), PKR (#3072), STING (D2P2F), cGAS (D1D3G), IRF9 (D2T8M), PD-L1 (E1L3N), P-IRF3 Ser396 (4D4G), IRF3 (D6I4C), P-TBK1 Ser172 (D52C2), TBK1 (D1B4), P-EIF2α Ser51 (#9721), and EIF2α (D7D3) from Cell Signaling; P-PKR Thr446 (ab32036) from Abcam; R-actin C4 (sc-47778) from Santa Cruz. All antibodies were used at a dilution of 1:1000 except R-actin which was used at 1:4000). The following secondary antibodies were used at 1:5000 dilution: Goat anti-Rabbit IRDye 800CW (LI-COR, 926-32211) and Goat anti-Mouse IRDye […] (LI-COR, 926-68020). All immunoblots were imaged using the LI-COR digital imaging system and ImageJ.

[3] = test system: HCC366, NCI-H1650 and NCI-H196 cell lines; test: Cell viability after CRISPR-Cas9 knockout of ADAR1 (CellTiter-Glo); type: cell-based, human; settings: 6 days after CRISPR-Cas9 knockout of ADAR1
From the text: (§2) guide RNA sequences were designed using the sgRNA designer tool on The RNAi Consortium (TRC) portal (available on the World Wide Web at portals.broadinstitute.org/gpp/public/analysis-tools/sgrnadesign). […] Guide sequences were cloned into the Cas9 expressing lentiviral vector CRISPRv2 (available on the World Wide Web at genomeengineering.org/crispr). For virus production, each CRISPRv2 vector and packaging vectors were introduced into 293T cells via calcium phosphate transfection (Clontech). Lentivirus was harvested in RPMI media supplemented with 10% FBS and filtered before addition to each cancer cell line. Infected cells were selected in 2 μg/ml puromycin or 10 μg/ml blasticidin for 7 days. Following this, protein lysates were harvested or cells were plated for proliferation assays in 96 well plates and grown in the presence of RPMI containing 10% FBS and 1 μg/ml puromycin or 5 μg/ml blasticidin. Immunoblotting confirmed decreased protein levels of each gene across the pool of infected cells. For cell viability experiments, cells were plated at a density of 3000 cells per well in a 96-well assay plate. Cell viability was assayed 3 and 6 days later with the CellTiter-Glo® Luminescent Cell Viability Assay kit (Promega). […]

A549 cells = test: Cell viability after CRISPR-Cas9 knockout of ADAR1, control cells; type: cell-based, human; settings: 6 days after CRISPR-Cas9 knockout of ADAR1
From the text: as §2

ADAR1 = test: Immunoblot of ADAR1 after CRISPR-Cas9 knockout; type: cell-based, human; settings: A549 cells
Description: as §1
guide RNA sequences were designed using the sgRNA designer tool on The RNAi Consortium (TRC) portal (available on the World Wide Web at portals.broadinstitute.org/gpp/public/analysis-tools/sgrnadesign). […] Guide sequences were cloned into the Cas9 expressing lentiviral vector CRISPRv2 (available on the World Wide Web at genomeengineering.org/crispr). For virus production, each CRISPRv2 vector and packaging vectors were introduced into 293T cells via calcium phosphate transfection (Clontech). […]

ADAR = test: Western blot of ADAR isoforms in B16 cells; type: cell-based, mouse; settings: with or without IFNβ addition
Description: Whole cell lysates were prepared in lysis buffer (60 mM Tris HC, 2% SDS, 10% glycerol, complete EDTA-free protease-inhibitor (Roche, Basel, Switzerland), and 500 U/mL benzonase nuclease (Novagen, Merck, Darmstadt, Germany)). Samples were boiled at 100° C. and clarified by centrifugation. Protein concentration was measured with a BCA protein assay kit (Pierce, Dallas, Texas). Fifty to one hundred and fifty micrograms of protein was loaded on 4-12% Bolt® Bis-Tris Plus gels (Life Technologies, Carlsbad, CA) in MES buffer (Life Technologies). Protein was transferred to 0.45 μm nitrocellulose membranes (Bio-Rad, Hercules, CA). Membranes were blocked in Tris-buffered saline plus 0.1% Tween 20 (TBS-T) containing 5% non-fat dry milk for 1 hour at room temperature followed by overnight incubation with primary antibody at 4° C. Membranes were washed with TBS-T and incubated with HRP-conjugated secondary antibodies for 1 hour at room temperature. […] Blots were then analyzed using ImageJ and Adobe® Photoshop® software. […]
Whole cell lysates were prepared in lysis buffer (60 mM Tris HCl, 2% SDS, 10% glycerol, complete EDTA-free protease-inhibitor (Roche), and 500 U/mL benzonase nuclease (Novagen)). […] Protein concentration was measured with a BCA protein assay kit (Pierce). […] Blots were then analyzed using ImageJ and Adobe Photoshop software. […]

B16 tumor cells [4] = test: In vitro cytokine stimulation and growth inhibition assay; type: cell-based, mouse; settings: Adar-deficient versus control B16 tumor cells, 72 hours
Description: (§3) FIG. 9 includes 3 panels, identified as panels A, B, and C, which provide exemplary mechanisms of ADAR-induced sensitivity to checkpoint blockade. […] A certain number of B16 tumor cells (50 k; Adar null or control) were stimulated in vitro with cytokine for 72 hours and the cell numbers were then counted. […] A certain number of B16 tumor cells (50 k; Adar null or control) were stimulated with cytokine in vitro, washed to remove cytokine (for IFNβ), and evaluated via IFNβ ELISA. […] A certain number of B16 tumor cells (50 k; Adar null or control) were stimulated in vitro with cytokine for 72 hours and stained for Class I MHC and PD-L1.
Tumor cells were engineered as noted above and plated in DMEM+10% FBS containing the indicated combinations of cytokines: IFN (1,000 U/ml, PBL), IFN (100 ng/ml, Cell Signaling Technologies), TNF (10 ng/ml, PreproTech). For rescue/re-expression experiments, 10,000 cells were plated in 96-well plates and viable cells were enumerated after 72 hours using Cell Titer-Glo® (Promega, G7570). For all other growth inhibition assays, 50,000 cells were plated in 12-well plates and viable cells were counted after 72 hours using the Countess automated cell counting system (Thermo Fisher Scientific, C10227).

B16 tumor cells [5] = test: IFNβ ELISA of tumor cell supernatant; type: cell-based, mouse; settings: Adar-deficient B16 tumor cells
Description: as §3
Cells were seeded at a density of 10,000 cells per well in a 96-well plate. Mouse interferon beta (pbl assay science) was then added. After 24 hrs of incubation at 37° C., the supernatant was aspirated from the wells to remove the mouse interferon beta. The wells were then gently washed once with media. Fresh warm media was then replaced in the wells. After 48 hrs of incubation at 37° C., the supernatant was collected, and the concentration of interferon beta was determined using The VeriKine Mouse Interferon Beta ELISA Kit (pbl assay science).

Molecule	viability [3]	viability (A549 cells)	ADAR1 protein (immunoblot) (ADAR1)	depletion of ADAR isoforms (Western blot) (ADAR)	also measured
Nc1ncn([C@@H]2O[C@H](CO)[C@@H](O)[C@H]2O)c(=O)n1 [azacitidine, 5-azacytidine]					sensitization to ADAR1 knockout [1]: sensitized A549 cells to ADAR1 knockout; expression of MDA5 [2]: induced expression of interferon regulated gene MDA5; phosphorylation of EIF2α [2]: increased phosphorylation of EIF2α
AGATAGCCATGCTGAGCCAC (chemistry not fully specified) [ADAR1 sg2]	decreased viability	no effect on control cells	knockout of ADAR1 isoforms p150 and p110		
CACCGTCTACAGCCCTACCTTGCCA (antisense AAACTGGCAAGGTAGGGCTGTAGAC; listed as DNA, chemistry not fully specified) [Mouse Adar sgRNA 2, P110 and P150]				effectively depleted both isoforms	
CACCGTCTGGATTCACAACTCCAGG (antisense AAACCCTGGAGTTGTGAATCCAGAC; listed as DNA, chemistry not fully specified) [Mouse Adar sgRNA1, P150 only]				effectively depleted the P150 isoform of ADAR, but not the P110 isoform of ADAR	
GTGCATACACTCAAGCAGTG (chemistry not fully specified) [ADAR1 sg1]	decreased viability	no effect on control cells	knockout of ADAR1 isoforms p150 and p110		
IFNβ: mouse interferon beta (1000 U/mL, PBL) used on B16 cells (protein, UniProt P01575 22-182, looked up) Interferon beta: INYKQLQLQERTNIRKCQELLEQLNGKINLTYRADFKIPMEMTEKMQKSYTAFAIQEMLQNVFLVFRNNFSSTGWNETIVVRLLDELHQQTVFLKTVLEEKQEERLTWEMSSTALHLKSYYWRVQRYLKLMKYNSYAWMVVRAEIFRNFLIIRRLTRNFQN					cytokine-induced growth arrest (B16 tumor cells [4]): increases IFNβ and IFNγ-induced growth arrest; also recorded: increases susceptibility to IFNβ and IFNγ; IFNβ secretion after interferon stimulation (B16 tumor cells [5]): make IFNβ when stimulated with IFNβ
